# Several values for one entry are separate records, joined by “and”; a condition that tells them apart may be missing. Equal entries are not always repeated.
# Tests used:
# ApoE^–/– mice on an HFD [1] = test: Blood chemical analysis of plasma; assay type: in vivo, mouse; set-up: Lipase / ALT / Altherogenic Lipids (Chol-HDL) / HDL-C / LDL-C: unit not given here
# Experimental: SerBut water was pH adjusted using 10 M NaOH to a final pH of 7.4. […] After 6 weeks, mice were euthanized. […] The liver was harvested and part was homogenized in tissue protein extraction reagent buffer (Invitrogen, 78510) supplemented with protease inhibitor mini tablets (Thermo Fisher Scientific, PIA32955) for Western blotting and qPCR. […] Blood chemical analysis was performed on an Alfa […] Chemistry Analyzer. Reagent kits from Alfa Wasserman were used according to manufacturer's instructions to analyze plasma: lipase (catalog SA1045), HDL-C (catalog SA2038, LDL-C (catalog SA1040), AST (catalog SA1053), ALT (catalog SA1052). A LEGENDPlex was utilized to analyze the concentrations of inflammatory cytokines (BioLegend).
# ApoE^–/– mice on an HFD [2] = test: Flow cytometry of the aorta; assay type: in vivo, mouse; set-up: Aorta Flow CD11b+F480+ / Aorta Flow CD11b+Ly6Chi: unit not given here
# Text: SerBut water was pH adjusted using 10 M NaOH to a final pH of 7.4. […] After 6 weeks, mice were euthanized. […] The liver was harvested and part was homogenized in tissue protein extraction reagent buffer (Invitrogen, 78510) supplemented with protease inhibitor mini tablets (Thermo Fisher Scientific, PIA32955) for Western blotting and qPCR. […] The heart with the ascending and descending aorta to the diaphragm was harvested. The perivascular adipose tissue was carefully removed by microdissection while keeping the adventitia intact. […] After 45 minutes of digestion at 37°C with orbital shaking, aortas were passed through a 70 μm cell strainer, rinsed, pelleted, and plated into a U-bottom 96-well microplate for staining. […] Cells were washed in PBS supplemented with 2% FBS (FACS buffer) and stained for 30 minutes on ice with surface antibodies at a 1:200 dilution in a 1:1 mixture of FACS buffer and Brilliant Stain Buffer (BD Biosciences). Cells were washed with FACS buffer and PBS and fixed with 2% paraformaldehyde on ice for 20 minutes. Cells were washed twice with PBS and resuspended in FACS buffer. Precision count beads (BioLegend) were used to determine absolute cell counts. In this study, antibodies used included those against CD16/CD32 (BioLegend, clone 93, catalog 101302), CCR2 (PE; […] BD Biosciences, clone HL3, catalog 558079, BD Biosciences), […] (APC; […] BD Biosciences, clone 30-F11, catalog 564225), F4/80 (BUV496; BD Biosciences, clone T45-2342, catalog 750644), […].5; BioLegend, clone M5/114.15.2, catalog 107626), Ly-6C (APC-Cy7; […]
# ApoE^–/– mice on an HFD [3] = test: CD68 immunohistochemistry and Stary plaque severity grading; assay type: in vivo, mouse; set-up: STARY Score Average: scale not given here
# Experimental: For 6 weeks, mice were freely administered water, water containing 150 mM SerBut, or water containing an equimolar amount of NaBut. SerBut water was pH adjusted using 10 M NaOH to a final pH of 7.4. […] In concert, mice were fed an HFD with 42% from fat and 0.2% total cholesterol (Envigo, TD-88137) ad libitum. After 6 weeks, mice were euthanized. The lMLNs, ILNs, spleen, heart, and aorta were harvested and processed for flow cytometry analysis ([67]). The liver was harvested and part was homogenized in tissue protein extraction reagent buffer (Invitrogen, 78510) supplemented with protease inhibitor mini tablets (Thermo Fisher Scientific, PIA32955) for Western blotting and qPCR. The remaining liver was fixed with 4% paraformaldehyde and embedded in paraffin for histological analysis.
# Frozen aortic root sections were fixed in Zamboni fixative for 10 minutes. After TBS wash, slides were loaded on Leica Bond RX automated stainer. Anti–mouse CD68 antibody (BioLegend, catalog 137001, clone FA-11; 1:4000) was applied to tissue sections for 60 minutes of incubation at room temperature. Following TBS wash, tissue sections were incubated with rabbit anti-rat IgG (Thermo Fisher Scientific, 31219) 30 minutes. The antigen-antibody binding was detected using Polymer-HRP (Leica Biosystems, Bond Polymer Refine Detection kit, DS9800). The slides were coverglassed by autocoverslipper (Tissue-Tek Glas g2). Stary plaque severity grading was done as previously described ([42]). Briefly, each individual mouse was scored if there were at least 2 sections showing all 3 leaflets of the aortic valve that could reasonably be scored. Each leaflet was scored individually per aortic valve and subsequently averaged per section. All sections were averaged per mouse for a final score. Sections were graded blinded. Table 1 explains the scoring scale. Quantitative analysis of plaque features was performed using a classifier in QuPath (v.05.0).
# [4] = Biodistribution of free butyrate in intestinal tissue and contents, C57BL/6 mice; assay type: in vivo; conditions: C57BL/6, normal chow; 3 hr after single gavage
# Text: NaBut is limited in its translation by butyrate’s rapid consumption by colonocytes as a primary energy source in the distal gut. We propose that the enhanced biodistribution of free, active butyrate (following cleavage from serine) in SerBut-treated mice is due to small intestinal escape from the gut via amino acid transporters. To probe this hypothesis, we repeated the experiment and analyzed the biodistribution of free active butyrate in distinct sections of the intestinal tissue and the intestinal contents (Figure 2, K and L, and Supplemental Figure 2). Because neither ApoE^–/– nor HFD feeding would be expected to change amino acid receptor expression or function in the intestine, this was performed in C57BL/6 mice on a normal diet. […] We saw no increase in butyrate in the colon tissue (Figure 2P).
# Samples were prepared and derivatized as described previously ([28]). […] The internal standard, 4-methylvaleric acid, was added.
# Injection volume: 5.0 μL. Flow rate: 0.5 mL/min.
# [5] = Blood Chemistry, 6wk, individual mice, experiments 1 and 2
smiles,measurement,setting,value
"CCCC(=O)[O-].[Na+] [NaBut, sodium butyrate, reference compound]",lipase in the plasma,ApoE^–/– mice on an HFD [1]; 6 weeks,significant increase
same,total cholesterol or triglycerides in the plasma,ApoE^–/– mice on an HFD [1]; 6 weeks,Neither SerBut nor NaBut influenced
same,LDL-C as a fraction of total cholesterol,"ApoE^–/– mice on an HFD [1]; 6 weeks, 150 mM in drinking water, HFD",significantly reduced
same,Altherogenic Lipids (Chol-HDL),ApoE^–/– mice on an HFD [1]; [5],872 and 974 and 870 and 998 and 868 and 1098 and 1088 and 922 and 790 and 882
same,HDL-C,ApoE^–/– mice on an HFD [1]; [5],44 and 40 and 42 and 36 and 38
same,LDL-C,"ApoE^–/– mice on an HFD [1]; Blood Chemistry, individual mice, experiments 1 and 2",284 and 358 and 282 and 372 and 310 and 334 and 344 and 346 and 348 and 320
same,ALT,"ApoE^–/– mice on an HFD [1]; plasma at 6 weeks, 150 mM in drinking water ad libitum with HFD, individual mice",35.16 and 44.74 and 39.32 and 26.1 and 40.12 and 26.24 and 30.52 and 29.96 and 35.92 and 47.84
same,Lipase,"ApoE^–/– mice on an HFD [1]; plasma at 6 weeks, 150 mM in drinking water with HFD",118 and 92 and 98 and 112 and 94 and 122 and 124 and 106
same,"CD45^+ total leukocytes, CD11b^+ monocytes and CCR2^+CD11b^+ monocytes in the aorta","ApoE^–/– mice on an HFD [2]; 6 weeks, compared with control groups",did not
same,"CD11c^+MHCII^hi dendritic cells, CD11b^+F480^+ macrophages and CD19^+ B cells in the aorta","ApoE^–/– mice on an HFD [2]; 6 weeks, compared with water controls",significantly reduced
same,Aorta Flow B cell Count,ApoE^–/– mice on an HFD [2]; individual mice,315.036 and 240.601 and 72.6582 and 149.307 and 158.07 and 295.152 and 181.142 and 268.448 and 139.825 and 307.858
same,Aorta Flow CD11b+F480+,ApoE^–/– mice on an HFD [2]; individual mice,25.0597 and 7.5188 and 3.353 and 10.7501 and 8.319 and 26.3753 and 5.998 and 6.129 and 4.994 and 11.9789
same,Aorta Flow CD11b+Ly6Chi,ApoE^–/– mice on an HFD [2]; individual mice,10.7965 and 20.8384 and 26.2172 and 17.9684 and 39.3795 and 20.0501 and 6.707 and 17.9169 and 5.942 and 82.8937
same,Aorta Flow T Cell Count,ApoE^–/– mice on an HFD [2]; individual mice,829.356 and 329.574 and 100.604 and 316.531 and 316.14 and 663.15 and 236.324 and 566.315 and 510.612 and 977.48
same,Aorta Flow CD11b+ Count,"ApoE^–/– mice on an HFD [2]; individual mice, experiment 2",159.148 and 69.3047 and 197.085 and 244.83 and 668.174 and 122.361 and 438.833 and 237.203 and 489.938 and 511.933
same,Aorta Flow CD11b+CCR2+,"ApoE^–/– mice on an HFD [2]; individual mice, experiment 2",22.5564 and 10.0604 and 29.8614 and 43.9743 and 133.132 and 27.5912 and 84.5795 and 57.4282 and 142.549 and 96.6587
same,Aorta Flow CD45 Count,"ApoE^–/– mice on an HFD [2]; individual mice, experiment 2",1122.81 and 480.662 and 1340.18 and 1250.3 and 2283.35 and 857.726 and 1975.97 and 1910.11 and 5505.51 and 4110.98
same,Aorta Flow CD11c+MHCIIhi,"ApoE^–/– mice on an HFD [2]; individual mice, cell count",16.2907 and 5.589 and 14.3335 and 20.2044 and 75.358 and 13.1958 and 30.6448 and 26.2172 and 32.3431 and 60.8592
same,STARY Score Average,"ApoE^–/– mice on an HFD [3]; average per mouse, experiments 1 and 2, grades per the 1st table",4 and 4.278 and 4.083 and 3.889 and 4.367 and 4.595 and 4.611 and 4.667
same,CD68+ IHC Quantification CD68 % Lesion,ApoE^–/– mice on an HFD [3]; individual mice,65.946 % Lesion and 80.0675 % Lesion and 77.46 % Lesion and 69.3112 % Lesion and 58.965 % Lesion and 57.8207 % Lesion and 65.2988 % Lesion
same,CD68+ IHC Quantification CD68+ (um2),ApoE^–/– mice on an HFD [3]; individual mice,195963 um2 and 152245 um2 and 221322 um2 and 227819 um2 and 178448 um2 and 177016 um2 and 268099 um2
same,CD68+ IHC Quantification Intima % Lesion,ApoE^–/– mice on an HFD [3]; individual mice,12.0227 % Lesion and 7.77 % Lesion and 10.3458 % Lesion and 13.4964 % Lesion and 17.8935 % Lesion and 30.3544 % Lesion and 12.0651 % Lesion
same,CD68+ IHC Quantification Intima (um2),ApoE^–/– mice on an HFD [3]; individual mice,36578.9 um2 and 15233.4 um2 and 30544.5 um2 and 45695.4 um2 and 53110.1 um2 and 102496 um2 and 50318.2 um2
same,CD68+ IHC Quantification Necrotic Core % Lesion,ApoE^–/– mice on an HFD [3]; individual mice,21.7224 % Lesion and 11.9211 % Lesion and 11.8215 % Lesion and 16.7081 % Lesion and 22.5501 % Lesion and 9.461 % Lesion and 22.3112 % Lesion
same,CD68+ IHC Quantification Necrotic Core (um2),ApoE^–/– mice on an HFD [3]; individual mice,64440.8 um2 and 22667.5 um2 and 33872.5 um2 and 54918.5 um2 and 69955.9 um2 and 28166.5 um2 and 89527.4 um2
same,"free butyrate, Colon Contents",[4],384.57 µg/g
same,"free butyrate, Lower SI Contents",[4],41.6523 µg/g and 45.1024 µg/g and 60.4329 µg/g and 68.0864 µg/g

# Reference: PMC12333940, “A prometabolite strategy inhibits cardiometabolic disease in an ApoE^–/– murine model of atherosclerosis” (JCI Insight, 2025)
